Target: Urokinase-type plasminogen activator (Homo sapiens, UniProt P00749)
Assay: In vitro inhibitory activity against Urokinase-type plasminogen activator (microPa)

Row | Ki [nM] | Structure (SMILES)
1 | 1020 | CSc1sc(C(=N)N)cc1-c1csc(Nc2cccc(OCC(N)=O)c2)n1
2 | 1180 | CSc1sc(C(=N)N)cc1-c1csc(NC(c2ccccc2)c2ccccc2)n1
3 | 280 | COc1ccc(Nc2nc(-c3cc(C(=N)N)sc3SC)cs2)cc1
4 | 430 | CSc1sc(C(=N)N)cc1-c1csc(Nc2ccc(C)cc2Br)n1
5 | 1400 | CSc1sc(C(=N)N)cc1-c1csc(NCCN2CCOCC2)n1
6 | 280 | COc1cccc(Nc2nc(-c3cc(C(=N)N)sc3SC)cs2)c1
7 | 3900 | CSc1sc(C(=N)N)cc1-c1csc(N)n1
8 | 700 | CSc1sc(C(=N)N)cc1-c1csc(Nc2ccccc2C(C)C)n1
9 | 660 | COc1ccc(OC)c(Nc2nc(-c3cc(C(=N)N)sc3SC)cs2)c1
10 | 280 | CSc1sc(C(=N)N)cc1-c1csc(Nc2ccccc2Br)n1
11 | 310 | CSc1sc(C(=N)N)cc1-c1csc(Nc2ccc(N(C)C)cc2)n1
12 | 1600 | CSc1sc(C(=N)N)cc1-c1csc(NCCN2CCCCC2)n1
13 | 6000 | N=C(N)c1ccc(CS)s1
14 | 110 | CSc1sc(C(=N)N)cc1-c1csc(Nc2ccc(Oc3ccc(Cl)cc3)cc2)n1
15 | 80 | Cc1sc(C(=N)N)cc1-c1csc(Nc2ccc(Oc3ccccc3)cc2)n1
16 | 440 | CSc1sc(C(=N)N)cc1-c1csc(Nc2cccc(Cl)c2C)n1
17 | 1460 | CSc1sc(C(=N)N)cc1-c1csc(Nc2ccccc2Cl)n1
18 | 1500 | CSc1sc(C(=N)N)cc1-c1csc(Nc2c(Cl)cccc2Cl)n1
19 | 280 | CSc1sc(C(=N)N)cc1-c1csc(Nc2cccc(C)c2C)n1
20 | 3060 | CSc1sc(C(=N)N)cc1-c1csc(N2CCN(c3ccccc3F)CC2)n1
21 | 1620 | Cc1sc(C(=N)N)cc1-c1csc(N)n1
22 | 280 | CSc1sc(C(=N)N)cc1-c1csc(Nc2ccc(Cl)cc2C)n1

Row | Structure (SMILES) | Ki [nM]
23 | CSc1sc(C(=N)N)cc1-c1csc(Nc2cccc3ccccc23)n1 | 500
24 | CSc1sc(C(=N)N)cc1-c1csc(Nc2ccc(OCc3ccccc3)cc2)n1 | 180
25 | CSc1sc(C(=N)N)cc1-c1csc(Nc2ccc(S(=O)(=O)N3CCCCC3)cc2)n1 | 400
26 | CSc1sc(C(=N)N)cc1-c1csc(Nc2ccc(Cc3ccccc3)cc2)n1 | 180
27 | CSc1sc(C(=N)N)cc1-c1csc(NCc2ccc(C)cc2)n1 | 640
28 | CSc1sc(C(=N)N)cc1-c1csc(Nc2ccc(Oc3ccccc3)cc2)n1 | 60
29 | CSc1sc(C(=N)N)cc1-c1csc(Nc2ccc(Nc3ccccc3)cc2)n1 | 70
30 | CSc1sc(C(=N)N)cc1-c1csc(Nc2ccc(Oc3ccc(C(F)(F)F)cn3)cc2)n1 | 910
31 | COc1cc(Nc2nc(-c3cc(C(=N)N)sc3SC)cs2)cc(OC)c1OC | 160
32 | CSc1sc(C(=N)N)cc1-c1csc(Nc2ccc(/N=N/c3ccccc3)cc2)n1 | 180
33 | CSc1sc(C(=N)N)cc1-c1csc(NCCCc2ccccc2)n1 | 350
34 | CSc1sc(C(=N)N)cc1-c1csc(Nc2ccc3c(c2)OCO3)n1 | 520

Source: ChEMBL document CHEMBL1134012, “Synthesis of thiophene-2-carboxamidines containing 2-aminothiazoles and their biological evaluation as urokinase inhibitors” (Bioorg Med Chem Lett, 2001)
